Measured values from article PMC9218685, “Legume Plant Peptides as Sources of Novel Antimicrobial Molecules Against Human Pathogens” (Frontiers in Molecular Biosciences, 2022).
Values after ≈ are worked out from the molar mass of the structure shown. “Also recorded” adds a separate entry of the source. Like-named read-outs stand apart in the source and are kept apart here. Peptide text beside a SMILES is read from it.

What was measured:
Type in all cases: cell-based
[1] = test system: Escherichia coli (ATCC 8739); settings: for MBC Escherichia coli: ATCC 8739, 3 h
From the text: (§1) The following pathogenic bacterial strains were used: The Gram-positive Enterococcus faecalis (ATCC 29212), Staphylococcus aureus (HNCMO112011), Listeria monocytogenes (ATCC 19111) and the Gram-negative Pseudomonas aeruginosa (ATCC 27853), Escherichia coli (ATCC 8739), Salmonella enterica (ATCC 13076), Klebsiella pneumoniae (NCTC 13440), Acinetobacter baumannii (ATCC 17978) obtained from the ATCC (United States) and NCTC (National Collection of Type Cultures–England). For the antifungal experiment the Candida albicans W01 strain ([Ördögh et al., 2014]) was used. Antimicrobial activities of peptides against ∼10^7 log phase bacteria were tested in Potassium-Phosphate Buffer (PPB, pH 7.4) as described by [Jenei et al. (2020)] while anti-Candida assays were done according to [Szerencsés et al. (2021)]. The two-fold dilution series of peptides ranged from 25 μM to 0.125 μM, while that of the antibiotics ampicillin (Merck) and miconazole (Duchefa Biochemie) from […] to 0.1 μM. The lowest concentration of the antimicrobial agents, which completely eliminated viable bacteria or C. albicans were considered as the minimal bactericidal concentration (MBC) and minimal fungicidal concentration (MFC).
(§2) The minimal bactericidal concentrations (MBCs) were determined after 3 h of treatment of ∼10^7 log phase bacteria with 2-fold serial dilution of peptides from 25 µM to 0.8 µM. Only 25 of the 50 cationic M. truncatula peptides had activity at ≤25 µM (Supplementary Table S1). […] Three peptides were only active against two bacterial strains; NCR649 against L. monocytogenes and A. baumannii, NCR281 against L. monocytogenes and P. aeruginosa and NCR350 against A. baumannii and P. aeruginosa. […] None of the anionic NCR peptides affected the survival of the tested bacterial strains.

[2] = test system: Pseudomonas aeruginosa (ATCC 27853); settings: for MBC Pseudomonas aeruginosa: ATCC 27853, 3 h
From the text: as §1, §2

[3] = test system: Listeria monocytogenes (ATCC 19111); settings: for MBC Listeria monocytogenes: ATCC 19111, 3 h
From the text: as §1, §2

[4] = test system: Enterococcus faecalis (ATCC 29212); settings: for Ability to kill E. faecalis: 3 h, ~10^7 log phase bacteria, peptides ≤25 µM
From the text: as §1, §2

[5] = test system: Candida albicans W01 strain; experiment: microbe, parasite or virus in culture; settings: read-out: MFC, minimal fungicidal concentration against C. albicans
From the text: as §1

[6] = test system: Acinetobacter baumannii (ATCC 17978); experiment: microbe, parasite or virus in culture; settings: for MBC: pH 7.4, read-out: MBC, minimal bactericidal concentration against A. baumannii
From the text: as §1, §2

[7] = test system: E. coli, S. enteritidis, P. aeruginosa, L. monocytogenes, S. aureus, E. faecalis, K. pneumoniae and A. baumannii; experiment: Antimicrobial activity assay, spectrum over the eight tested pathogenic bacteria; settings: 3 h treatment of ~10^7 log phase bacteria, peptides 25 to 0.8 µM; active = MBC ≤25 µM
From the text: as §1
We investigated the antimicrobial activity of 78 NCR peptides from M. truncatula and 12 NCRs from other IRLC legumes as well as their shorter derivatives against E. coli, S. enteritidis, P. aeruginosa, L. monocytogenes, S. aureus, E. faecalis, K. pneumoniae and A. baumannii (Supplementary Table S1). In the selection of the M. truncatula peptides, we considered their symbiotic expression levels but also their physicochemical properties. The antimicrobial activity of NCRs has so far been attributed to cationic peptides, with the exception of one anionic peptide. To investigate whether other anionic NCRs are antimicrobial, in addition to the cationic peptides, neutral and anionic NCRs were also included covering a broad range of peptides with different net charges (NC: from 7.8 to −10.2) and isoelectric points (pI: from 10.69 to 2.95). 50 peptides had positive net charge and pI > 7.0, while 28 peptides had negative net charge and pI < 7.0 (Supplementary Table S1A). Of the other legumes, only cationic NCR peptides were studied (Supplementary Table S1B).
as §2

[8] = 3 h, ~10^7 log phase bacteria, peptides ≤25 µM

CC(C)C[C@H](NC(=O)[C@H](CS)NC(=O)[C@H](CCCCN)NC(=O)CNC(=O)[C@@H](N)Cc1ccccc1)C(=O)N[C@@H](CCCCN)C(=O)N[C@@H](CC(C)C)C(=O)N[C@@H](CCCCN)C(=O)N[C@@H](CS)C(=O)N[C@H](C(N)=O)C(C)C [GoNCR308 (16-25)] (H-FGKCLKLKCV-NH2; N-terminus assumed)
MBC Escherichia coli [1]: 25 µM (≈ 28.4 µg/mL)
MBC Pseudomonas aeruginosa [2]: 12.5 µM (≈ 14.2 µg/mL)
MBC Listeria monocytogenes [3]: 12.5 µM (≈ 14.2 µg/mL)

CC[C@H](C)[C@H](N)C(=O)N[C@H](C(=O)N[C@H](C(=O)N[C@@H](CC(N)=O)C(=O)N[C@@H](CCCNC(=N)N)C(=O)N[C@@H](CCCNC(=N)N)C(=O)N[C@@H](CS)C(=O)N[C@@H](CCCCN)C(=O)N[C@@H](CO)C(=O)N[C@@H](Cc1c[nH]cn1)C(=O)N[C@@H](CCCCN)C(=O)N[C@@H](CC(=O)O)C(=O)N[C@@H](CS)C(=O)N1CCC[C@H]1C(=O)NCC(=O)N[C@@H](Cc1ccccc1)C(=O)NCC(=O)N[C@@H](CCCCN)C(=O)N[C@@H](CS)C(=O)N[C@@H](CC(C)C)C(=O)N[C@@H](CCCCN)C(=O)N[C@@H](CC(C)C)C(=O)N[C@@H](CCCCN)C(=O)N[C@@H](CS)C(=O)N[C@H](C(=O)N[C@@H](Cc1ccc(O)cc1)C(=O)N[C@H](C(=O)N1CCC[C@H]1C(=O)N[C@@H](CCCCN)C(=O)N[C@@H](CCCNC(=N)N)C(=O)O)[C@@H](C)O)C(C)C)[C@@H](C)O)[C@@H](C)CC [GoNCR308] (H-IITNRRCKSHKDCPGFGKCLKLKCVYTPKR-OH; N-terminus assumed)
Ability to kill E. faecalis [4]: able to kill

Clc1ccc(COC(Cn2ccnc2)c2ccc(Cl)cc2Cl)c(Cl)c1 (stereo not shown) [Miconazole, reference compound]
MFC ([5]; Candida albicans, W01STRAIN, C. albicans W01, two-fold dilution series, lowest concentration completely eliminating viable C. albicans): 50600 µM (≈ 21000 µg/mL)

CC(C)[C@H](NC(=O)CNC(=O)[C@H](CCCNC(=N)N)NC(=O)[C@H](CCCCN)NC(=O)[C@@H]1CCCN1C(=O)[C@@H](N)CCCCN)C(=O)N[C@@H](CC(N)=O)C(=O)N[C@@H](Cc1ccccc1)C(=O)N[C@@H](CCCNC(=N)N)C(=O)N[C@@H](CS)C(=O)N[C@@H](CCCNC(=N)N)C(=O)N[C@@H](CCCCN)C(=O)NCC(=O)N[C@@H](CCCCN)C(N)=O [MsNCR463_17-30] (H-KPKRGVNFRCRKGK-NH2)
MFC ([5]; W01 strain): 3.125 µM (≈ 5.23 µg/mL)
MBC ([6]; ATCC 17978, 3 h): 3.125 µM (≈ 5.23 µg/mL)

CC[C@H](C)[C@H](NC(=O)[C@H](Cc1ccc(O)cc1)NC(=O)[C@H](C)N)C(=O)N[C@@H](CCC(=O)O)C(=O)N[C@@H](CS)C(=O)N[C@@H](CCC(=O)O)C(=O)N[C@H](C(=O)N[C@@H](CC(=O)O)C(=O)N[C@@H](CC(=O)O)C(=O)N[C@@H](CC(=O)O)C(=O)N[C@@H](CS)C(=O)N1CCC[C@H]1C(=O)N[C@@H](CCCCN)C(=O)N1CCC[C@H]1C(=O)N[C@@H](CCSC)C(=O)N[C@@H](CCCCN)C(=O)N[C@@H](CC(N)=O)C(=O)N[C@@H](CO)C(=O)N[C@@H](Cc1c[nH]cn1)C(=O)N1CCC[C@H]1C(=O)N[C@@H](CC(=O)O)C(=O)N[C@H](C(=O)N[C@@H](Cc1ccc(O)cc1)C(=O)N[C@@H](Cc1ccc(O)cc1)C(=O)N[C@@H](CCCCN)C(=O)N[C@@H](CS)C(=O)N[C@H](C(=O)N[C@@H](CCCCN)C(=O)N[C@@H](Cc1c[nH]cn1)C(=O)N[C@@H](CCCNC(=N)N)C(=O)N[C@@H](CS)C(=O)N[C@@H](CCC(N)=O)C(=O)N[C@@H](Cc1c[nH]c2ccccc12)C(=O)N[C@@H](C)C(=O)N[C@@H](Cc1c[nH]c2ccccc12)C(=O)N[C@@H](CCCCN)C(=O)O)C(C)C)[C@@H](C)O)C(C)C [NCR147] (H-AYIECEVDDDCPKPMKNSHPDTYYKCVKHRCQWAWK-OH; N-terminus assumed)
Activity against E. coli [1, 8]: showed activity
MBC Escherichia coli [1]: 25 µM (≈ 110 µg/mL)
Activity against P. aeruginosa [2, 8]: showed activity
MBC Pseudomonas aeruginosa [2]: 12.5 µM (≈ 54.9 µg/mL)
Activity against L. monocytogenes [3, 8]: showed activity
MBC Listeria monocytogenes [3]: 12.5 µM (≈ 54.9 µg/mL)
Activity against A. baumannii [6, 8]: showed activity
MBC Acinetobacter baumannii ([6]; ATCC 17978, 3 h): 3.125 µM (≈ 13.7 µg/mL)

CC[C@H](C)[C@H](NC(=O)CNC(=O)[C@H](CCC(N)=O)NC(=O)[C@@H](NC(=O)[C@H](CS)NC(=O)[C@H](CCCNC(=N)N)NC(=O)[C@H](CC(C)C)NC(=O)[C@H](CCCNC(=N)N)NC(=O)[C@H](CCCNC(=N)N)NC(=O)[C@H](CC(N)=O)NC(=O)[C@@H](NC(=O)[C@H](Cc1ccc(O)cc1)NC(=O)[C@H](CCSC)NC(=O)[C@@H]1CCCN1C(=O)[C@H](Cc1ccc(O)cc1)NC(=O)[C@H](CC(C)C)NC(=O)[C@@H](NC(=O)[C@H](CC(N)=O)NC(=O)[C@H](CS)NC(=O)[C@H](CC(=O)O)NC(=O)[C@@H](NC(=O)[C@H](CC(=O)O)NC(=O)[C@H](CO)NC(=O)[C@@H](NC(=O)[C@H](CS)NC(=O)[C@H](CCC(=O)O)NC(=O)[C@@H](N)CO)[C@@H](C)CC)[C@@H](C)O)C(C)C)[C@@H](C)CC)[C@@H](C)CC)C(=O)N[C@@H](CS)C(=O)N[C@@H](Cc1c[nH]cn1)C(=O)N[C@H](C(=O)N[C@H](C(=O)N[C@H](C(=O)N[C@@H](C)C(=O)N[C@@H](CCCNC(=N)N)C(=O)N[C@@H](CCCNC(=N)N)C(=O)N[C@@H](CCCNC(=N)N)C(=O)O)[C@@H](C)O)[C@@H](C)O)[C@@H](C)O [NCR299] (H-SECISDTDCNVLYPMYINRRLRCIQGICHTTTARRR-OH; N-terminus assumed)
MBC Escherichia coli [1]: 12.5 µM (≈ 53.2 µg/mL)
MBC Pseudomonas aeruginosa [2]: 3.125 µM (≈ 13.3 µg/mL)
MBC Listeria monocytogenes [3]: 12.5 µM (≈ 53.2 µg/mL)
Ability to kill E. faecalis [4]: able to kill
MBC Enterococcus faecalis ([4]; ATCC 29212, 3 h): 12.5 µM (≈ 53.2 µg/mL)
Antibacterial spectrum over the eight tested bacterial strains [7]: effective against five or four strains

CC[C@H](C)[C@H](NC(=O)[C@@H]1CCCN1C(=O)[C@H](CC(C)C)NC(=O)[C@H](CS)NC(=O)[C@H](CCCCN)NC(=O)[C@H](CS)NC(=O)[C@H](CCSC)NC(=O)[C@H](CCCNC(=N)N)NC(=O)[C@H](CCCNC(=N)N)NC(=O)[C@@H](NC(=O)[C@H](CS)NC(=O)[C@H](CCCNC(=N)N)NC(=O)[C@@H]1CCCN1C(=O)[C@H](CCC(=O)O)NC(=O)[C@H](CCSC)NC(=O)CNC(=O)[C@@H]1CCCN1C(=O)[C@@H]1CCCN1C(=O)[C@H](CS)NC(=O)[C@H](CCSC)NC(=O)[C@H](Cc1c[nH]cn1)NC(=O)[C@@H]1CCCN1C(=O)[C@@H]1CCCN1C(=O)[C@H](CS)NC(=O)[C@H](Cc1c[nH]cn1)NC(=O)[C@H](CO)NC(=O)[C@H](CC(=O)O)NC(=O)[C@@H](NC(=O)[C@@H](NC(=O)[C@H](CS)NC(=O)[C@H](CC(C)C)NC(=O)[C@@H](N)Cc1ccc(O)cc1)C(C)C)[C@@H](C)O)C(C)C)C(=O)NCC(=O)N[C@@H](Cc1c[nH]c2ccccc12)C(=O)N[C@@H](CCCNC(=N)N)C(=O)N[C@@H](CCCCN)C(=O)N[C@@H](Cc1ccc(O)cc1)C(=O)N[C@@H](Cc1ccccc1)C(=O)N[C@H](C(=O)N1CCC[C@H]1C(=O)O)C(C)C [NCR336] (H-YLCVTDSHCPPHMCPPGMEPRCVRRMCKCLPIGWRKYFVP-OH; N-terminus assumed)
Ability to kill E. faecalis [4]: able to kill
Antibacterial spectrum over the eight tested bacterial strains [7]: capable of killing all tested bacteria; also recorded: active against all the eight tested pathogens

CSCC[C@H](NC(=O)[C@H](CC(N)=O)NC(=O)[C@H](Cc1ccccc1)NC(=O)[C@@H](NC(=O)[C@H](CC(C)C)NC(=O)[C@H](CCCCN)NC(=O)[C@H](CCCCN)NC(=O)[C@H](CCCCN)NC(=O)[C@H](CCCCN)NC(=O)[C@H](CCCCN)NC(=O)[C@H](CC(C)C)NC(=O)[C@H](CCCCN)NC(=O)[C@H](CCCCN)NC(=O)[C@H](CCCCN)NC(=O)[C@H](Cc1c[nH]cn1)NC(=O)[C@H](CCCCN)NC(=O)[C@H](CCC(N)=O)NC(=O)[C@@H](NC(=O)[C@H](CS)NC(=O)[C@@H](N)Cc1ccc(O)cc1)C(C)C)[C@@H](C)O)C(N)=O [PsNCR349_31-50] (H-YCVQKHKKKLKKKKKLTFNM-NH2)
MFC ([5]; W01 strain): 1.6 µM (≈ 4.03 µg/mL)
MBC ([6]; ATCC 17978, 3 h): 6.25 µM (≈ 15.8 µg/mL)
